Results taken from ChEMBL document CHEMBL5252638, “Novel triphenylphosphonium amphiphilic conjugates of glycerolipid type: synthesis, cytotoxic and antibacterial activity, and targeted cancer cell delivery” (RSC Med Chem, 2023).

How the values were obtained:
Enterococcus faecalis [1] = assay: Bactericidal activity against Enterococcus faecalis ATCC 29212 by serial microdilution method; assay type: functional
Bacillus cereus [2] = assay: Antimicrobial activity against Bacillus cereus ATCC 10702 NCTC 8035 by serial microdilution method; assay type: functional
[3] = Selectivity index, ratio of IC50 for human WI-38 cells to IC50 for human MCF7 cells; assay type: toxicity; conditions: WI-38 cells and MCF7 cells, read-out: Ratio IC50
Pseudomonas aeruginosa [4] = assay: Bactericidal against Pseudomonas aeruginosa ATCC 9027 by serial microdilution method; assay type: functional
Homo sapiens [5] = species on record: Homo sapiens; assay: Selectivity index, ratio of IC50 for human WI-38 cells to IC50 for human HuTu80 cells
[6] = Cytotoxicity against human Chang liver cells assessed as number of viable cells measured after 48 hrs by MTT based colorimetric assay; assay type: toxicity, cell-based
Homo sapiens [7] = species on record: Homo sapiens; assay: Selectivity index, ratio of IC50 for human WI-38 cells to IC50 for human SK-OV-3 cells
M-HeLa = assay: Cytotoxicity against human HelaM cells assessed as number of viable cells measured after 48 hrs by MTT based colorimetric assay; assay type: functional, cell-based
T98G = assay: Cytotoxicity against human T98G cells assessed as number of viable cells measured after 48 hrs by MTT based colorimetric assay; assay type: functional, cell-based
PC-3 = assay: Cytotoxicity against human PC-3 cells assessed as number of viable cells measured after 48 hrs by MTT based colorimetric assay; assay type: functional, cell-based; conditions: PC-3, 48 h
Escherichia coli [8] = assay: Antimicrobial activity against Escherichia coli ATCC 25922 by serial microdilution method; assay type: functional
DU-145 = assay: Cytotoxicity against human DU-145 cells assessed as number of viable cells measured after 48 hrs by MTT based colorimetric assay; assay type: functional, cell-based; conditions: DU-145, 48 h
Homo sapiens [9] = species on record: Homo sapiens; assay: Selectivity index, ratio of IC50 for human WI-38 cells to IC50 for human PANC-1 cells
Homo sapiens [10] = species on record: Homo sapiens; assay: Selectivity index, ratio of IC50 for human WI-38 cells to IC50 for human DU-145 cells
Staphylococcus aureus [11] = assay: Bactericidal against Staphylococcus aureus ATCC 6538 P FDA 209P by serial microdilution method; assay type: functional
[12] = Selectivity index, ratio of IC50 for human WI-38 cells to IC50 for human HepG2 cells; assay type: toxicity; conditions: WI-38 cells and HepG2 cells, read-out: Ratio IC50
SK-OV-3 = assay: Cytotoxicity against human SK-OV-3 cells assessed as number of viable cells measured after 48 hrs by MTT based colorimetric assay; assay type: functional, cell-based; conditions: SK-OV-3, 48 h
[13] = Selectivity index, ratio of IC50 for human WI-38 cells to IC50 for human PC-3 cells; assay type: toxicity; conditions: WI-38 cells and PC-3 cells, read-out: Ratio IC50
Staphylococcus aureus [14] = assay: Antimicrobial activity against Staphylococcus aureus ATCC 6538 P FDA 209P by serial microdilution method; assay type: functional
MCF7 = assay: Cytotoxicity against human MCF7 cells assessed as number of viable cells measured after 48 hrs by MTT based colorimetric assay; assay type: functional, cell-based; conditions: MCF7, 48 h
HepG2 = assay: Cytotoxicity against human HepG2 cells assessed as number of viable cells measured after 48 hrs by MTT based colorimetric assay; assay type: functional, cell-based; conditions: HepG2, 48 h
PANC-1 = assay: Cytotoxicity against human PANC-1 cells assessed as number of viable cells measured after 48 hrs by MTT based colorimetric assay; assay type: functional, cell-based; conditions: PANC-1, 48 h
[15] = Cytotoxicity against human WI-38 cells assessed as number of viable cells measured after 48 hrs by MTT based colorimetric assay; assay type: toxicity, cell-based
Enterococcus faecalis [16] = assay: Antimicrobial activity against Enterococcus faecalis ATCC 29212 by serial microdilution method; assay type: functional
Escherichia coli [17] = assay: Bactericidal activity against Escherichia coli ATCC 25922 by serial microdilution method; assay type: functional
HuTu80 [18] = assay: Cytotoxicity against human HuTu80 cells assessed as number of viable cells measured after 48 hrs by MTT based colorimetric assay; assay type: functional, cell-based; conditions: HuTu80, 48 h
Pseudomonas aeruginosa [19] = assay: Antimicrobial activity against Pseudomonas aeruginosa ATCC 9027 by serial microdilution method; assay type: functional
A549 = assay: Cytotoxicity against human A549 cells assessed as number of viable cells measured after 48 hrs by MTT based colorimetric assay; assay type: functional, cell-based; conditions: A549, 48 h
HuTu80 [20] = assay: Induction of apoptosis in human HuTu80 cells assessed as necrotic cells at 2 uM incubated for 48 hrs by annexin V FITC/propidium iodide staining based flow cytometry analysis (reference value: 4.56%); assay type: functional
HuTu80 [21] = assay: Induction of mitochondrial membrane potential loss in human HuTu80 cells assessed as J-aggregates red fluorescence intensity at 5 uM incubated for 24 hrs by JC10 staining based flow cytometry method (reference value: 94.4%); assay type: functional
HuTu80 [22] = assay: Induction of cell cycle arrest in human HuTu80 cells assessed as accumulation of cell at G1/G0 phase at 2 uM measured after 48 hrs by propidium iodide staining based analysis (reference value: 72%); assay type: functional
HuTu80 [23] = assay: Induction of apoptosis in human HuTu80 cells assessed as early apoptotic cells at 2 uM incubated for 48 hrs by annexin V FITC/propidium iodide staining based flow cytometry analysis (reference value: 1.74%); assay type: functional
HuTu80 [24] = assay: Induction of apoptosis in human HuTu80 cells assessed as viable cells at 1 uM incubated for 48 hrs by annexin V FITC/propidium iodide staining based flow cytometry analysis (reference value: 93.71%); assay type: functional; conditions: read-out: Activity
HuTu80 [25] = assay: Induction of apoptosis in human HuTu80 cells assessed as late apoptotic cells at 1 uM incubated for 48 hrs by annexin V FITC/propidium iodide staining based flow cytometry analysis (reference value: 0.00%); assay type: functional
HuTu80 [26] = assay: Induction of mitochondrial membrane potential loss in human HuTu80 cells assessed as J-monomer green fluorescence intensity at 5 uM incubated for 24 hrs by JC10 staining based flow cytometry method (reference value: 5.7%); assay type: functional
Bacillus cereus [27] = assay: Bactericidal activity against Bacillus cereus ATCC 10702 NCTC 8035 by serial microdilution method; assay type: functional
HuTu80 [28] = assay: Induction of apoptosis in human HuTu80 cells assessed as early apoptotic cells at 1 uM incubated for 48 hrs by annexin V FITC/propidium iodide staining based flow cytometry analysis (reference value: 1.74%); assay type: functional
HuTu80 [29] = assay: Induction of apoptosis in human HuTu80 cells assessed as late apoptotic cells at 2 uM incubated for 48 hrs by annexin V FITC/propidium iodide staining based flow cytometry analysis (reference value: 0.00%); assay type: functional
HuTu80 [30] = assay: Induction of apoptosis in human HuTu80 cells assessed as necrotic cells at 1 uM incubated for 48 hrs by annexin V FITC/propidium iodide staining based flow cytometry analysis (reference value: 4.56%); assay type: functional
[31] = Selectivity index, ratio of IC50 for human WI-38 cells to IC50 for human T98G cells; assay type: toxicity; conditions: WI-38 cells and T98G cells, read-out: Ratio IC50
HuTu80 [32] = assay: Induction of cell cycle arrest in human HuTu80 cells assessed as accumulation of cell at S phase at 2 uM measured after 48 hrs by propidium iodide staining based analysis (reference value: 8.1%); assay type: functional
HuTu80 [33] = assay: Induction of apoptosis in human HuTu80 cells assessed as viable cells at 2 uM incubated for 48 hrs by annexin V FITC/propidium iodide staining based flow cytometry analysis (reference value: 93.71%); assay type: functional; conditions: read-out: Activity
HuTu80 [34] = assay: Induction of ROS production in human HuTu80 cells assessed as increase in fluorescence intensity at 10 uM measured after 48 hrs by flow cytometry based analysis (reference value: 380); assay type: functional
HuTu80 [35] = assay: Induction of mitochondrial membrane potential loss in human HuTu80 cells assessed as J-aggregates red fluorescence intensity at 10 uM incubated for 24 hrs by JC10 staining based flow cytometry method (reference value: 94.4%); assay type: functional
HuTu80 [36] = assay: Induction of ROS production in human HuTu80 cells assessed as increase in fluorescence intensity at 5 uM measured after 48 hrs by flow cytometry based analysis (reference value: 380); assay type: functional
HuTu80 [37] = assay: Induction of mitochondrial membrane potential loss in human HuTu80 cells assessed as J-monomer green fluorescence intensity at 10 uM incubated for 24 hrs by JC10 staining based flow cytometry method (reference value: 5.7%); assay type: functional
HuTu80 [38] = assay: Induction of cell cycle arrest in human HuTu80 cells assessed as accumulation of cell at S phase at 1 uM measured after 48 hrs by propidium iodide staining based analysis (reference value: 8.1%); assay type: functional
HuTu80 [39] = assay: Induction of cell cycle arrest in human HuTu80 cells assessed as accumulation of cell at G1/G0 phase at 1 uM measured after 48 hrs by propidium iodide staining based analysis (reference value: 72%); assay type: functional
HuTu80 [40] = assay: Induction of cell cycle arrest in human HuTu80 cells assessed as accumulation of cell at G2/M phase at 2 uM measured after 48 hrs by propidium iodide staining based analysis (reference value: 18.7%); assay type: functional
HuTu80 [41] = assay: Induction of cell cycle arrest in human HuTu80 cells assessed as accumulation of cell at G2/M phase at 1 uM measured after 48 hrs by propidium iodide staining based analysis (reference value: 18.7%); assay type: functional

`CC(C)C1=CC2=CC[C@@H]3[C@](C)(CCC[C@@]3(C)C(=O)OCC(O)COC(=O)CCCC[P+](c3ccccc3)(c3ccccc3)c3ccccc3)[C@H]2CC1` (stereo not given in full) gave an MBC (Enterococcus faecalis [1]) of 250 µM, an MIC (Bacillus cereus [2]) of 3.9 µM and a selectivity ratio [3] of 1.9. For the same molecule, the MBC (Pseudomonas aeruginosa [4]) was 500 µM, the Ratio IC50 (Homo sapiens [5]) was 11 and the IC50 at 48 h [6] was 6 µM. It also gave a Ratio IC50 (Homo sapiens [7]) of 1.7, an IC50 (M-HeLa) of 27.3 µM and an IC50 (T98G) of 9.8 µM. For the same molecule, the IC50 (PC-3) was 11 µM, the MIC (Escherichia coli [8]) was 250 µM and the IC50 (DU-145) was 2.8 µM. The Ratio IC50 (Homo sapiens [9]) was 1.8, the Ratio IC50 (Homo sapiens [10]) was 8.6 and the MBC (Staphylococcus aureus [11]) was 250 µM. The selectivity ratio [12] was 1.1, the IC50 (SK-OV-3) was 14.4 µM and the selectivity ratio [13] was 2.2. The MIC (Staphylococcus aureus [14]) was 31.3 µM, the IC50 (MCF7) was 12.5 µM and the IC50 (HepG2) was 21.6 µM. The IC50 (PANC-1) was 13.1 µM, the IC50 at 48 h [15] was 24.2 µM and the MIC (Enterococcus faecalis [16]) was 7.8 µM. For the same molecule, the MBC (Escherichia coli [17]) was 500 µM, the IC50 (HuTu80 [18]) was 2.2 µM and the MIC (Pseudomonas aeruginosa [19]) was 250 µM. It also gave an IC50 (A549) of 26.2 µM.

Work on `C=C(C)[C@@H]1CC[C@]2(COC(=O)CCC(=O)OC(COC(=O)CCCCCCC/C=C\CCCCCCCC)COC(=O)CCCC[P+](c3ccccc3)(c3ccccc3)c3ccccc3)CC[C@]3(C)[C@H](CC[C@@H]4[C@@]5(C)CC[C@H](O)C(C)(C)[C@@H]5CC[C@]43C)[C@@H]12.[Br-]` (stereo not given in full) yielded an Activity (HuTu80 [20]) of 34.5%, an MIC (Bacillus cereus [2]) of 15.6 µM and an Activity (HuTu80 [21]) of 84.2%. It also gave a selectivity ratio [3] of 2.2, an Activity (HuTu80 [22]) of 87% and an Activity (HuTu80 [23]) of 2.5%. For the same molecule, the viability at 1 µM (HuTu80 [24]) was 76.1%, the Activity (HuTu80 [25]) was 4.58% and the Ratio IC50 (Homo sapiens [5]) was 21.4. For the same molecule, the IC50 at 48 h [6] was 11.2 µM, the Activity (HuTu80 [26]) was 15.9% and the MBC (Bacillus cereus [27]) was 125 µM. For the same molecule, the Activity (HuTu80 [28]) was 1.29%, the Activity (HuTu80 [29]) was 12% and the IC50 (M-HeLa) was 51 µM. The Activity (HuTu80 [30]) was 18.03%, the selectivity ratio [31] was 1.7 and the IC50 (T98G) was 22 µM. The Activity (HuTu80 [32]) was 1.9%, the IC50 (PC-3) was 32.3 µM and the IC50 (DU-145) was 15.5 µM. For the same molecule, the Ratio IC50 (Homo sapiens [10]) was 2.3, the MBC (Staphylococcus aureus [11]) was 125 µM and the viability at 2 µM (HuTu80 [33]) was 51%. The IC50 (SK-OV-3) was 57 µM, the selectivity ratio [13] was 1.1 and the Flu intensity (HuTu80 [34]) was 840. For the same molecule, the Activity (HuTu80 [35]) was 90.3%, the MIC (Staphylococcus aureus [14]) was 31.3 µM and the IC50 (MCF7) was 16.4 µM. For the same molecule, the Flu intensity (HuTu80 [36]) was 500, the Activity (HuTu80 [37]) was 9.7% and the IC50 (HepG2) was 60 µM. The IC50 (PANC-1) was 35.7 µM, the IC50 at 48 h [15] was 36.3 µM and the Activity (HuTu80 [38]) was 2.8%. The Activity (HuTu80 [39]) was 84%, the MIC (Enterococcus faecalis [16]) was 125 µM and the Activity (HuTu80 [40]) was 1.8%. For the same molecule, the Activity (HuTu80 [41]) was 2.8%, the IC50 (HuTu80 [18]) was 1.7 µM and the IC50 (A549) was 54.2 µM.
